In patent publication US20240207282A1, “METHOD OF INCREASING CHAPERONE MEDIATED AUTOPHAGY BY STABILIZING THE INTERACTION OF RETINOIC ACID RECEPTOR-ALPHA AND AN INHIBITOR” (ALBERT EINSTEIN COLLEGE OF MEDICINE, priority 2021, published 2024):

Assays:
[1] = system: neuron-related cells; experiment: CMA activity, KFERQ-PS-Dendra reporter in neuron-related cells; type: cell-based, mouse; details: for CMA activation: neuronal-related mouse cells
Experimental: (§1) Cells: NIH3T3 mouse fibroblasts and the N2a neuroblastoma cell line were obtained from the American Type Culture Collection and were validated by genomic PCR. Primary human fibroblasts (GM01651) were from Coriell Repository. All the cells lines were tested for mycoplasma contamination using DNA staining protocol with Hoechst 33258 dye. Knock-down of NCoR1 was done using lentiviral mediated shRNA (SHCLNG-NM_011308) from the Sigma Mission library following standard procedures. Efficiency of knock-down was tested by immunoblot. Cell viability was measured using the CellTiter-Blue kit (Promega) 24 h after the addition of the different stressors according to manufacturer's instructions.
(§2) CMA activity: Cells were transduced with lentivirus carrying the KFERQ-PS-Dendra reporter as before. Cells were photoactivated by exposure to a 3.5 mA (current constant) light emitting diode (LED: Norlux, 405 nm) for 3 min and then plated in glass-bottom 96 well plates. At the desired times, cells were fixed with 4% PFA and imaged using high-content microscopy (Operetta system, Perkin Elmer). Images were quantified using the manufacturer's software in a minimum of 1,200 cells in 9 independent fields per well. […] To avoid con-funding effects for drug-induced changes in cell volume or adherence to the plate that could bring a fraction of the cells per field outside of focus, we set a threshold to count only cells that have at least 1/10 of the average number of […] detected in the untreated wells for each cell type (3-4 puncta/cell in the case of NIH3T3 and N2a cells and 5 puncta/cell in primary human fibroblasts). […] Slices were mounted in DAPI-Fluoromount-G to highlight the cell nucleus and allow quantification of puncta per cell. Images were acquired in x-y-z planes with an Axiovert 200 fluorescence microscope (Carl Zeiss Ltd) with a ×63 objective and 1.4 numerical aperture, mounted with an ApoTome.2 slider or with a Confocal microscope (TCS SP5; Leica) using an HCX Plan Apo CS×63.0 1.40 NA oil objective and the Leica Application Suite X (LAS X).

[2] = system: human cells; experiment: CMA activity, KFERQ-PS-Dendra reporter in human cells; type: cell-based
Experimental: as §1, §2

[3] = system: KFERQ-Dendra mice; experiment: CMA activation in vivo in KFERQ-Dendra mice; set-up: species or system mouse; details: i.p. 30 mg/kg bw daily, three days
Source text: Animals: C57BL/6J mice wild-type (WT) and homozygous for the Pde6 mutation (rd10 mouse model of retinal degeneration) were obtained from The Jackson Laboratory. C57BL/6 KFERQ-Dendra mice were generated by back-crossing FVB KFERQ-Dendra mice with wild-type C57BL/6 mice for 8 generations. Both male and female animals were used in this study in equal distribution groups. However, results from both sexes were pooled, because of absence of significant differences in any of the parameters analyzed after statistical analysis with a mixed model of two-way ANOVA sex and treatment as independent variables and the corresponding measure as dependent variable. […]
CMA activity: Cells were transduced with lentivirus carrying the KFERQ-PS-Dendra reporter as before. […] Images were quantified using the manufacturer's software in a minimum of 1,200 cells in 9 independent fields per well. […] To avoid con-funding effects for drug-induced changes in cell volume or adherence to the plate that could bring a fraction of the cells per field outside of focus, we set a threshold to count only cells that have at least 1/10 of the average number of […] detected in the untreated wells for each cell type (3-4 puncta/cell in the case of NIH3T3 and N2a cells and 5 puncta/cell in primary human fibroblasts). […] Slices were mounted in DAPI-Fluoromount-G to highlight the cell nucleus and allow quantification of puncta per cell. […]

[4] = In vitro stability in liver microsomes; type: in vitro ADME; details: human liver microsomes
Experimental: (§3) In vitro solubility in the following conditions A) HBSS/HEPES 10 mM/BSA 0.1% pH 6 B) HBSS/HEPES 10 mM/BSA 0.1% pH 7.4 C) TRIS/BSA 0.1% PBS (pH 7.4 and at indicated doses were measured by Nephelometry using the NEPHELOstar Galaxy apparatus (BMG Lab Technologies). In vitro stability in human, mouse and rat liver microsomes and permeability using a bidirectional permeability assay with CaCo-2 cells (pH 6.5/7.4) assays were performed with standard methodology and analyzed by LC-MS/MS. at SIMM-SERVIER joint Biopharmacy Laboratory. In silico ADME properties calculated by QikProp (Schrodinger, LLC) analysis and ADME predictions for CA39 (left) and CA77 (right).

[5] = In vitro solubility by nephelometry; type: physicochemical
Experimental: as §3

[6] = system: NIH3T3 cells; details: previously reported; cited from earlier work
[7] = system: NIH3T3; experiment: Intracellular proteolysis of long half-life proteins (3H-leucine); type: cell-based, mouse; details: 10 μM; duration of increase after addition
Experimental: Proteolysis was calculated from aliquots of the medium taken at different times and precipitated in trichloroacetic acid, as the amount of acid-precipitable radioactivity transformed to acid-soluble radioactivity at each time.

[8] = system: NIH3T3 cells; experiment: CMA activity, KFERQ-PS-Dendra reporter in NIH3T3 cells; type: cell-based, mouse; details: for CMA activation after washout: 12 h after washing out the compounds from the media; for CMA activating effect upon knock-down of NCoR1: NCoR1 KD NIH3T3, 20 μM, 24 h; for CMA activation: increasing concentrations, 12 or 24 h, compared with AR7
Experimental: CMA activity: Cells were transduced with lentivirus carrying the KFERQ-PS-Dendra reporter as before. Cells were photoactivated by exposure to a 3.5 mA (current constant) light emitting diode (LED: Norlux, 405 nm) for 3 min and then plated in glass-bottom 96 well plates. At the desired times, cells were fixed with 4% PFA and imaged using high-content microscopy (Operetta system, Perkin Elmer). Images were quantified using the manufacturer's software in a minimum of 1,200 cells in 9 independent fields per well. […] This was particularly important in the case of primary human cells where efficiency of transduction was approximately 65%. To avoid con-funding effects for drug-induced changes in cell volume or adherence to the plate that could bring a fraction of the cells per field outside of focus, we set a threshold to count only cells that have at least 1/10 of the average number of […] detected in the untreated wells for each cell type (3-4 puncta/cell in the case of NIH3T3 and N2a cells and 5 puncta/cell in primary human fibroblasts). To measure CMA in the tissues from KFERQ-Dendra mice, the organs of interest were fixed for 12 h at 4° C. in picric acid fixation buffer (2% formaldehyde, 0.2% picric acid in PBS, pH7.0) and then washed with 70% ethanol, followed by two washes in PBS. Tissues were immersed in 30% sucrose and then embedded in OCT for sectioning in a cryostat (Leica CM3050 S). After airdrying for 30 min, sections were stored at −20° C. until use. Slices were mounted in DAPI-Fluoromount-G to highlight the cell nucleus and allow quantification of puncta per cell. Images were acquired in x-y-z planes with an Axiovert 200 fluorescence microscope (Carl Zeiss Ltd) with a ×63 objective and 1.4 numerical aperture, mounted with an ApoTome.2 slider or with a Confocal microscope (TCS SP5; Leica) using an HCX Plan Apo CS×63.0 1.40 NA oil objective and the Leica Application Suite X (LAS X).

Compound	CMA activation after removal of compound ([1]; compound removed from the media)	CMA activation [1]	CMA activation [2]	CMA activation in vivo [3]	metabolic stability [4]	solubility [5]	toxicity [6]	intracellular rates of degradation of long-lived proteins [7]	CMA activation after washout [8]	CMA activating effect upon knock-down of NCoR1 [8]	CMA activation [8]
CC(=O)Nc1ccc(C2=Nc3ccc(Cl)cc3OC2)cc1 [CA77]	persisted and even further increased after the compound was removed from the media	efficiently activate CMA	efficiently activate CMA	activate CMA with comparable potency in vivo both in peripheral blood cells and in multiple organs	high to intermediate	reasonable solubility	without noticeable toxicity	remained upregulated 24 h after adding	activation was still noticeable	completely ablated the activating effect	activate CMA in a time and dose-dependent manner with higher potency than AR7
Clc1ccc2c(c1)OCC(c1ccc(-c3ccccc3)cc1)=N2 [CA39]	–	efficiently activate CMA	efficiently activate CMA	activate CMA with comparable potency in vivo both in peripheral blood cells and in multiple organs	high to intermediate	reasonable solubility	without noticeable toxicity	remained upregulated 24 h after adding	activation was still noticeable	completely ablated the activating effect	activate CMA in a time and dose-dependent manner with higher potency than AR7
